Assay results reported in US20230109833A1, “METABOLICALLY STABLE N-ACYLAMINOOXADIAZOLES USEFUL AS ANTIBACTERIAL AGENTS” (MICROBIOTIX, INC., priority 2017, published 2023).

How the values were obtained:
Tolerability studies = type: in vivo; conditions: data not shown
36 mammalian receptors = type: binding; conditions: 10 μM; every receptor of the panel

Structure (SMILES)	elevated single dose tolerability (Tolerability studies; 100 mg/kg, PO, observed 24 h)	multidose tolerability (Tolerability studies; seven days of dosing at 25 mg/kg, SC, BID, observed 10 days)	inhibition of the 36 mammalian receptors (36 mammalian receptors) [%]
O=C(Nc1nnc(-c2ccc(F)cc2)o1)N1CCc2ccccc2C1 [MBX-4132]	no effects distinct from vehicle controls	no effects distinct from vehicle controls	–
O=C(Nc1nnc(-c2ccc(F)cc2)o1)N1CC=C(C(F)(F)F)CC1 [compound 4347]	–	–	< 50
